Measurements: ChEMBL document CHEMBL1212904, “Discovery of pyrrole-indoline-2-ones as Aurora kinase inhibitors with a different inhibition profile” (J Med Chem, 2010)

What was measured:
Aurora kinase A = biological target: T1, Aurora kinase A (Homo sapiens, UniProt O14965); assay: Inhibition of recombinant aurora A
T1 sequence (O14965 whole entry): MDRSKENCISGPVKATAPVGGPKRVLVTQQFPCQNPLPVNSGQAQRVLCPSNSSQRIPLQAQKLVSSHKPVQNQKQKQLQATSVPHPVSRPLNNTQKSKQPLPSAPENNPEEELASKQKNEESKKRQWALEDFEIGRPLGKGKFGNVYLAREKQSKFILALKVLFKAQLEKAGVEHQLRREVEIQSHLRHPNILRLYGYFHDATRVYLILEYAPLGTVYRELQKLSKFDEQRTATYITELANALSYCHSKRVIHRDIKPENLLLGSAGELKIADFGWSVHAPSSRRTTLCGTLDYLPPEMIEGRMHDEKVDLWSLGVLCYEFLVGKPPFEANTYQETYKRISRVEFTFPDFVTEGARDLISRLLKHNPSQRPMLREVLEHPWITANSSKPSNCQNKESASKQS

Aurora kinase B [1] = biological target: T2, Aurora kinase B (Homo sapiens, UniProt Q96GD4); assay: Inhibition of recombinant aurora B
HCT-116 [2] = assay: Antiproliferative activity against human HCT116 cells after 72 hrs by cell titer 96 assay; type: functional, cell-based; settings: HCT-116, 72 h
HT-29 = assay: Antiproliferative activity against human HT-29 cells after 72 hrs by cell titer 96 assay; type: functional, cell-based; settings: HT-29, 72 h
HeLa = assay: Antiproliferative activity against human HeLa cells after 72 hrs by cell titer 96 assay; type: functional, cell-based
Aurora kinase B [3] = biological target: T2, Aurora kinase B; assay: Inhibition of recombinant aurora B at 1 uM
HCT-116 [4] = assay: Antiproliferative activity against human HCT116 cells after 72 hrs by [3H]thymidine incorporation assay; type: functional, cell-based
[5] = biological target: T3, Aurora kinase A (Homo sapiens) (UniProt O14965); assay: Inhibition of recombinant aurora A at 1 uM
T3 sequence (whole entry): T1 sequence (O14965 whole entry)

T2 sequence (Q96GD4 whole entry): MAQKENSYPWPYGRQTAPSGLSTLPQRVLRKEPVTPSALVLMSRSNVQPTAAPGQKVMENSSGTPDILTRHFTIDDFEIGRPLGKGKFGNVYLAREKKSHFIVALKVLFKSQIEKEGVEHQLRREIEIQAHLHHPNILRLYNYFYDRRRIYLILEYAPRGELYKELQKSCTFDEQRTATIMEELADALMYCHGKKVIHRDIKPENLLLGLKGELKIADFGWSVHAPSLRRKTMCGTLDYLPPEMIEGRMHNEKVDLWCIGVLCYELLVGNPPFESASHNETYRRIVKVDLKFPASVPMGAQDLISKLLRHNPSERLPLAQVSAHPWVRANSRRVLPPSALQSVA

Row | SMILES | IC50 (Aurora kinase A) [µM] | inhibition (Aurora kinase B [3]) [%] | also measured
1 | O=C1Nc2ccc(NS(=O)(=O)c3ccccc3)cc2/C1=C/c1[nH]c2c(c1CCC(=O)N1CCCC1)C(=O)CCC2 | 0.218 | – | IC50 (Aurora kinase B [1]): 0.719 µM; IC50 (HCT-116 [2]): > 10 µM; IC50 (HT-29): > 10 µM; IC50 (HeLa): > 10 µM
2 | CNC(=O)CCc1c(/C=C2\C(=O)Nc3ccc(NS(=O)(=O)c4ccccc4)cc32)[nH]c2c1C(=O)CCC2 | 0.117 | – | IC50 (Aurora kinase B [1]): 0.32 µM; IC50 (HCT-116 [2]): > 10 µM; IC50 (HT-29): > 10 µM; IC50 (HeLa): > 10 µM
3 | O=C(O)CCc1c(/C=C2\C(=O)Nc3ccc(NC(=O)c4ccccc4)cc32)[nH]c2c1C(=O)CCC2 | 0.72 | 14.2 | –
4 | O=C(O)CCc1c(/C=C2\C(=O)Nc3ccc(S(=O)(=O)Cc4ccc(F)cc4)cc32)[nH]c2c1C(=O)CCC2 | – | 15.5 | –
5 | CCN(CC)CCCc1c(/C=C2\C(=O)Nc3ccc(S(=O)(=O)N4CCc5ccccc54)cc32)[nH]c2c1C(=O)CCC2 | 2.34 | – | IC50 (Aurora kinase B [1]): 0.616 µM; IC50 (HCT-116 [2]): 2.66 µM; IC50 (HT-29): 2.13 µM; IC50 (HeLa): 3.27 µM
6 | O=C(O)CCc1c(/C=C2\C(=O)Nc3ccc(NS(=O)(=O)c4ccccc4)cc32)[nH]c2c1C(=O)CCC2 | 0.012 | – | IC50 (HCT-116 [2]): > 10 µM; IC50 (HCT-116 [4]): > 10 µM; IC50 (HT-29): > 10 µM
7 | O=C1Nc2ccc(S(=O)(=O)N3CCc4ccccc43)cc2/C1=C/c1[nH]c2c(c1CCC(=O)N1CCOCC1)C(=O)CCC2 | 0.563 | – | IC50 (Aurora kinase B [1]): 3.15 µM; IC50 (HCT-116 [2]): > 10 µM; IC50 (HT-29): > 10 µM; IC50 (HeLa): > 10 µM
8 | O=C(O)CCc1c(/C=C2\C(=O)Nc3ccc(NS(=O)(=O)c4ccc5ccccc5c4)cc32)[nH]c2c1C(=O)CCC2 | – | 21 | inhibition [5]: 40.6%
9 | CN(C)CCCc1c(/C=C2\C(=O)Nc3ccc(S(=O)(=O)N4CCc5ccccc54)cc32)[nH]c2c1C(=O)CCC2 | 2.27 | – | IC50 (Aurora kinase B [1]): 0.312 µM; IC50 (HCT-116 [2]): 0.9 µM; IC50 (HT-29): 0.75 µM; IC50 (HeLa): 1.62 µM
10 | CC(=O)c1c(C)[nH]c(/C=C2\C(=O)Nc3ccc(F)cc32)c1CCC(=O)O | 0.362 | 17.5 | –
11 | CCN(CC)CCCc1c(/C=C2\C(=O)Nc3ccc(NS(=O)(=O)c4ccccc4)cc32)[nH]c2c1C(=O)CCC2 | 2.45 | – | IC50 (Aurora kinase B [1]): 0.356 µM; IC50 (HCT-116 [2]): > 10 µM; IC50 (HT-29): > 10 µM; IC50 (HeLa): 8.61 µM
12 | O=C1Nc2ccc(NS(=O)(=O)c3ccccc3)cc2/C1=C/c1[nH]c2c(c1CCC(=O)N1CCOCC1)C(=O)CCC2 | 0.281 | – | IC50 (Aurora kinase B [1]): 0.906 µM; IC50 (HCT-116 [2]): > 10 µM; IC50 (HT-29): > 10 µM; IC50 (HeLa): > 10 µM
13 | O=C(O)CCc1c(/C=C2\C(=O)Nc3ccc(S(=O)(=O)N4CCCC4)cc32)[nH]c2c1C(=O)CCC2 | 0.007 | – | –
14 | COc1ccc(-c2ccc3c(c2)/C(=C/c2[nH]c4c(c2CCC(=O)O)C(=O)CCC4)C(=O)N3)cc1OC | – | 5.1 | –
15 | O=C(O)CCc1c(/C=C2\C(=O)Nc3ccc(S(=O)(=O)Cc4ccccc4)cc32)[nH]c2c1C(=O)CCC2 | – | 11.2 | –
16 | O=C1Nc2ccc(NS(=O)(=O)c3ccccc3)cc2/C1=C/c1[nH]c2c(c1CCCN1CCCC1)C(=O)CCC2 | 2.17 | – | IC50 (Aurora kinase B [1]): 0.31 µM; IC50 (HCT-116 [2]): > 10 µM; IC50 (HT-29): 3.32 µM; IC50 (HeLa): > 10 µM
17 | O=C(O)CCc1c(/C=C2\C(=O)Nc3ccc(S(=O)(=O)N4CCc5ccccc54)cc32)[nH]c2c1C(=O)CCC2 | 0.008 | – | –
18 | COc1cc(-c2ccc3c(c2)/C(=C/c2[nH]c4c(c2CCC(=O)O)C(=O)CCC4)C(=O)N3)ccc1O | – | 12.4 | –

More lines, main results first:

Row | IC50 (Aurora kinase A) [µM] | inhibition (Aurora kinase B [3]) [%] | SMILES | also measured
19 | – | 6.8 | O=C(O)CCc1c(/C=C2\C(=O)Nc3ccc(Br)cc32)[nH]c2c1C(=O)CCC2 | –
20 | – | 2.3 | CCOC(=O)CCc1c(/C=C2\C(=O)Nc3ccccc32)[nH]c2c1C(=O)CCC2 | –
21 | – | 12.8 | CC(=O)Nc1ccc2c(c1)/C(=C/c1[nH]c3c(c1CCC(=O)O)C(=O)CCC3)C(=O)N2 | –
22 | 0.456 | 17.3 | CC1(C)CC(=O)c2c([nH]c(/C=C3\C(=O)Nc4ccc(F)cc43)c2CCC(=O)O)C1 | –
23 | 0.021 | – | CN(C)S(=O)(=O)c1ccc2c(c1)/C(=C/c1[nH]c3c(c1CCC(=O)O)C(=O)CCC3)C(=O)N2 | –
24 | – | 3 | CCOC(=O)CCc1c(/C=C2\C(=O)Nc3ccc(F)cc32)[nH]c2c1C(=O)CCC2 | –
25 | – | 3.4 | O=C(O)CCc1c(/C=C2\C(=O)Nc3ccc([N+](=O)[O-])cc32)[nH]c2c1C(=O)CCC2 | –
26 | – | 2.6 | CNS(=O)(=O)c1ccc2c(c1)/C(=C/c1[nH]c3c(c1CCC(=O)O)C(=O)CCC3)C(=O)N2 | –
27 | 0.034 | 7.3 | CCS(=O)(=O)Nc1ccc2c(c1)/C(=C/c1[nH]c3c(c1CCC(=O)O)C(=O)CCC3)C(=O)N2 | –
28 | 0.057 | 7 | CCS(=O)(=O)c1ccc2c(c1)/C(=C/c1[nH]c3c(c1CCC(=O)O)C(=O)CCC3)C(=O)N2 | –
29 | 0.039 | 32.5 | C=CCS(=O)(=O)c1ccc2c(c1)/C(=C/c1[nH]c3c(c1CCC(=O)O)C(=O)CCC3)C(=O)N2 | –
30 | – | 34.1 | NS(=O)(=O)c1ccc2c(c1)/C(=C/c1[nH]c3c(c1CCC(=O)O)C(=O)CCC3)C(=O)N2 | –
31 | – | 13 | O=C(O)CCc1c(/C=C2\C(=O)Nc3ccccc32)[nH]c2c1C(=O)CCC2 | –
32 | – | 11.6 | O=C(O)CCc1c(/C=C2\C(=O)Nc3ccc(F)cc32)[nH]c2c1C(=O)CCC2 | –
33 | – | 2 | O=C(O)CCc1c(/C=C2\C(=O)Nc3ccc(F)cc32)[nH]c2c1C(=O)CCCC2 | inhibition [5]: 45.5%
